Common to all, as to assay type: cell-based
For assay [1], the system named is TLR7 and TLR8-induced cytokine and chemokine release. Nature of the assay: Inhibition of TLR7- and TLR8-mediated cytokine and chemokine production in human PBMCs. As to conditions: hPBMCs. As for the experimental part:
FIGS. 22A-[…] illustrate inhibition of TLR7-mediated (FIGS. 22A-22D) and TLR8-mediated (FIGS. 22E-[…]) proinflammatory cytokine production in human peripheral blood mononuclear cells by chloroquine or 47a. Proinflammatory cytokines were assayed by cytokine bead array methods after incubation of hPBMCs with graded concentrations of the test compound for 12 h in the presence of 10 μg/ml of either CL075 (TLR8 agonist) or gardiquimod (TLR7 agonist). FIGS. 23A-23D illustrate inhibition of TLR7-mediated (FIGS. 23A-23B) and TLR8-mediated (FIGS. 23C-3D) chemokine production in human peripheral blood mononuclear cells by chloroquine or 47a. Chemokines were assayed by cytokine bead array methods after incubation of hPBMCs with graded concentrations of the test compound for 12 h in the presence of 10 μg/ml of either CL075 (TLR8 agonist) or gardiquimod (TLR7 agonist). Aliquots (10^6 cells in 100 μL) of hPBMCs isolated from blood obtained from healthy human donors after informed consent by conventional Ficoll-Hypaque gradient centrifugation were stimulated for 12 h with graded concentrations of test compounds. The supernatant was isolated by centrifugation, diluted 1:20, and cytokines and chemokines were assayed in triplicate using analyte-specific cytokine/chemokine bead array assays as reported by us previously.^74

In assay [2] the target is T1, TLR8 (Homo sapiens, UniProt Q9NR97).
T1 construct: expressed in transfected cells; host or cells: HEK293 (HEK-Blue-8 cells)
T1 sequence (Q9NR97 27-1041): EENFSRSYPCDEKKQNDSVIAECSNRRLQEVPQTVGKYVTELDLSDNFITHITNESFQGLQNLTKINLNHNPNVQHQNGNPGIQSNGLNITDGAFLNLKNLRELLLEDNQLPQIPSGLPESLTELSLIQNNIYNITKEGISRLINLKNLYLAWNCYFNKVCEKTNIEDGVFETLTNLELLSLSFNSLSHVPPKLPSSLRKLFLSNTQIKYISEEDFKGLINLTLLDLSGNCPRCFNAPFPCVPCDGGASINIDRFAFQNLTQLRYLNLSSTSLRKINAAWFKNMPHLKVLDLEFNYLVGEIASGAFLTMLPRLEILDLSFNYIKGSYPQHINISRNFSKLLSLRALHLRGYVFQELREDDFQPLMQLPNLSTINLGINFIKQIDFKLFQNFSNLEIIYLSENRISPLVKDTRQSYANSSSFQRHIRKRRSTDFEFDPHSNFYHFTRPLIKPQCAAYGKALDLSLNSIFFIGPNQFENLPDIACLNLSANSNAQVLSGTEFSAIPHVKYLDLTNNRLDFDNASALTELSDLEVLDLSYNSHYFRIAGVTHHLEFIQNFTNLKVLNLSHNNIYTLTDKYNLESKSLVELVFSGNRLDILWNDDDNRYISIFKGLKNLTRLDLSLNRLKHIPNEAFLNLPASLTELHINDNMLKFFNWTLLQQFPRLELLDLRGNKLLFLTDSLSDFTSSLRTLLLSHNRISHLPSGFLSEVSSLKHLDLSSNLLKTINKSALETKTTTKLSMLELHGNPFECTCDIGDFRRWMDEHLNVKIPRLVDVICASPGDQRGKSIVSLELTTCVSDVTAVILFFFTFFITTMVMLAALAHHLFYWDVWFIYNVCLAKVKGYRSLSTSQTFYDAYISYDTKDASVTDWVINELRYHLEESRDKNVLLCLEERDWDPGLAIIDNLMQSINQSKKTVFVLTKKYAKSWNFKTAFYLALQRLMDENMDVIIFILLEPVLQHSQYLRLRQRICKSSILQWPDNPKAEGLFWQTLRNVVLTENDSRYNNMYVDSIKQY
Kind of assay: Schild plot analysis of inhibition of TLR8-induced activation. The method, then: (§1) Experiments were performed in checker-board format, using a liquid handler, in 384-well plates which permitted the concentrations of both agonist and antagonist to be varied simultaneously along the two axes of the plate. Either imidazoquinoline (TLR7-specific agonist) or CL075 (TLR8-specific agonist) was used at a starting concentration of 20 μg/mL, and were two-fold diluted serially (along the rows). Next, 47a or chloroquine was two-fold diluted serially in HEK detection medium (along columns). Reporter cells were then added, incubated, and NF-κB activation measured as described in the text. A and A′ (Y-axis) are defined respectively as the EC50 value in the absence of antagonist, and the EC50 values in the presence of varying concentrations of antagonist.

Assay [3] concerns the target T1, TLR8. Kind of assay: TLR8 reporter gene assay, antagonism (CL075 as agonist). The text has this:
(§2) The induction of NF-κB was quantified using HEK-Blue-3, HEK-Blue-7 and HEK-Blue-8 cells as previously described by us.^8,24,51 HEK293 cells were stably transfected with human TLR3 (or human TLR7 or human TLR8), MD2, and secreted alkaline phosphatase (sAP), and were maintained in HEK-Blue™ Selection medium containing zeocin and normocin. Stable expression of secreted alkaline phosphatase (sAP) under control of NF-κB/AP-1 promoters is inducible by the TLR3 (or TLR7 or TLR8) agonists, and extracellular sAP in the supernatant is proportional to NF-κB induction. HEK-Blue cells were incubated at a density of ˜10^5 cells/ml in a volume of 80 μl/well, in 384-well, flat-bottomed, cell culture-treated microtiter plates until confluency was achieved, and subsequently graded concentrations of stimuli. sAP was assayed spectrophotometrically using an alkaline phosphatase-specific chromogen (present in HEK-detection medium as supplied by the vendor) at 620 nm.
(§3) Antagonism assays were done as described by us earlier^73 using the following agonists at a constant concentration: TLR3 Poly(I:C) (10 ng/mL); TLR7: gardiquimod (1 μg/mL); TLR8: CL075 (1 μg/mL) mixed with graded concentrations of the test compounds.

For assay [4], the target named is T2, TLR7 (Homo sapiens, UniProt Q9NYK1).
T2 construct: expressed in transfected cells; host or cells: HEK293 (HEK-Blue-7 cells)
T2 sequence (Q9NYK1 27-1049): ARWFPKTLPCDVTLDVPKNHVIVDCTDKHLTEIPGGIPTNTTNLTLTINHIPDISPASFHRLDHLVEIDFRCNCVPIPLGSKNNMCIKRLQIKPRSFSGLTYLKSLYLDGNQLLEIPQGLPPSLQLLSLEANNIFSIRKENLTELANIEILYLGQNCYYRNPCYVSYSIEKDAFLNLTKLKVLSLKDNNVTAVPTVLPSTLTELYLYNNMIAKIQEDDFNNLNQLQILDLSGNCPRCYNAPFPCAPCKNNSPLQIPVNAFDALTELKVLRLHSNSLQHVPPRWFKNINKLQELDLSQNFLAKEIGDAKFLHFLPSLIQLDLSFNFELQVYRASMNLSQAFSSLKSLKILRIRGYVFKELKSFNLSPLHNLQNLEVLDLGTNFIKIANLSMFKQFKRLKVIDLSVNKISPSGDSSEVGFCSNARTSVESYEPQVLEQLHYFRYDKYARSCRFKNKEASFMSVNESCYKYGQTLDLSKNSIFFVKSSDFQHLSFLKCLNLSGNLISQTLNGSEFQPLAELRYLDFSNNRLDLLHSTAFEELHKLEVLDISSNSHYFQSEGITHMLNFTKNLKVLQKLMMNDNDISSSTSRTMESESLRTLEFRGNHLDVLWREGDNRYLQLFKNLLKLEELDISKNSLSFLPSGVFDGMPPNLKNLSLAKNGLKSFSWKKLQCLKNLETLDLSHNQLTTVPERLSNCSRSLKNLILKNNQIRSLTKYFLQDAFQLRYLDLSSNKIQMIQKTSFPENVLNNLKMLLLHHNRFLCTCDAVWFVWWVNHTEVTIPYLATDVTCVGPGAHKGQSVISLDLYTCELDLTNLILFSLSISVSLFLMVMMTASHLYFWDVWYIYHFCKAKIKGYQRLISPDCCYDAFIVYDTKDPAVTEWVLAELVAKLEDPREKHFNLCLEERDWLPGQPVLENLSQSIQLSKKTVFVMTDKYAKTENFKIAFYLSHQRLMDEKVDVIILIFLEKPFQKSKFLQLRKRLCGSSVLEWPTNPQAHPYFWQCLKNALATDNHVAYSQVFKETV
Kind of assay: TLR7 reporter gene assay, antagonism (gardiquimod as agonist).
Description: as §2, §3
Background: A reporter such as luciferase makes a cellular process visible.

The target in assay [5] is T2, TLR7. Kind of assay: Schild plot analysis of inhibition of TLR7-induced activation. As for the experimental part: as §1
For assay [6], the system named is human peripheral blood mononuclear cells. Nature of the assay: IFN-α induction in human PBMCs (ELISA). As to conditions: hPBMC, 12 h. As for the experimental part:
FIG. 21 is a graph illustrating IFN-α induction by select dimers in human peripheral blood mononuclear cells. IFN-α was assayed by analyte specific ELISA after incubation of hPBMCs with graded concentrations of the test compound for 12 h.
Aliquots (10^6 cells in 100 μL) of hPBMCs isolated from blood obtained from healthy human donors after informed consent by conventional Ficoll-Hypaque gradient centrifugation were stimulated for 12 h with graded concentrations of test compounds. The supernatant was isolated by centrifugation, diluted 1:20, and IFN-α was assayed in triplicate using a high-sensitivity human IFN-α-specific ELISA kit (PBL Interferon Source, Piscataway, N.J.).
For orientation: An ELISA detects its analyte on a solid surface through an enzyme-linked reagent.

Assay [7] deals with T1, TLR8. Nature of the assay: TLR8 reporter gene assay (NF-κB induction, HEK-Blue-8 cells), agonism.
Description: NF-κB induction: The induction of NF-κB was quantified using HEK-Blue-7 cells and HEK-Blue-8 cells as previously described by us.^8,24 HEK293 cells were stably transfected with human TLR7 (or human TLR8), MD2, and secreted alkaline phosphatase (sAP), and were maintained in HEK-Blue™ Selection medium containing zeocin and normocin. Stable expression of secreted alkaline phosphatase (sAP) under control of NF-κB/AP-1 promoters is inducible by the TLR7 (or TLR8) agonists, and extracellular sAP in the supernatant is proportional to NF-κB induction. HEK-Blue cells were incubated at a density of […] in a volume of 80 μL/well, in 384-well, flat-bottomed, cell culture-treated microtiter plates until confluency was achieved, and subsequently graded concentrations of stimuli. sAP was assayed spectrophotometrically using an alkaline phosphatase-specific chromogen (present in HEK-detection medium as supplied by the vendor) at 620 nm.
as §2

The target in assay [8] is T2, TLR7. Kind of assay: TLR7 reporter gene assay (NF-κB induction, HEK-Blue-7 cells), agonism. As to conditions: Table 1; ND = not detected; read-out: TLR7 Agonism. The procedure, abridged: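 HEK293 cells stably transfected with human TLR7 or TLR8, MD2 and NF-κB/AP-1-driven secreted alkaline phosphatase, grown to confluency, then exposed to graded compound concentrations. Secreted alkaline phosphatase in supernatant measured with chromogen at 620 nm as NF-κB induction.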

Turning to `Nc1nc2ccccc2c2c1nc(CCCc1nc3c(N)nc4ccccc4c3n1Cc1ccccc1)n2Cc1ccccc1` [Compound 47a, 2,2′-(propane-1,3-diyl)bis(1-benzyl-1H-imidazo[4,5-c]quinolin-4-amine)], the concentration for half-maximal inhibition (IC50) (in general, the point on the concentration scale where inhibition reaches its midpoint) in assay [1] (Homo sapiens, PBMC, 12 h, 10 μg/ml CL075 or gardiquimod) was 0.05 to 0.3 µM; on TLR8 [3] (agonist CL075 1 μg/mL, ND = not detected) it was 3.2 µM; at TLR7 [4] (agonist gardiquimod 1 μg/mL, ND = not detected), 3.1 µM. In addition, in assay [1], the “Inhibition of TNF-α and IL-1β production (in words)” value is recorded as “potently inhibits”. The “Schild plot slope, TLR8 inhibition” value at TLR8 [2] is reported as 0.51. Moreover, on TLR8 [3], the “TLR8 antagonistic activity (in words)” value is “potent antagonistic activity”. Further, at TLR7 [4], the “TLR7 antagonistic activity (in words)” value was “potent antagonistic activity”. Also, the “Schild plot slope, TLR7 inhibition” value at TLR7 [5] is on record as 1.12.

On to `CCCCc1nc2c(N)nc3ccccc3c2n1Cc1ccc(CNC(=O)CCCCCCCCCCC(=O)NCc2ccc(Cn3c(CCCC)nc4c(N)nc5ccccc5c43)cc2)cc1` [Compound 52c, N^1,N^12-bis(4-((4-amino-2-butyl-1H-imidazo[4,5-c]quinolin-1-yl)methyl)benzyl)dodecane Diamide], for which the “IFN-α induction (in words)” value in assay [6] is “most potent”. In addition, at TLR8 [7], the “TLR8-agonistic activity (in words)” value was “displayed both TLR7 and TLR8 agonism”. Besides, the EC50 was found to be 4.78 µM at TLR8 [7] (Table 1, ND = not detected) and 0.17 µM on TLR7 [8].

Source of the values: patent US10208037B2, “Toll-like receptor-7 and -8 modulatory 1H imidazoquinoline derived compounds” (The University of Kansas, priority 2011, dated 2019).
